Legend:
[1] = test system: Human immunodeficiency virus 1; assay: Antiviral activity against HIV1 harboring RES056 mutant infected in human MT4 cells assessed as reduction in virus induced cytopathic effect incubated for 5 days by Spectrophotometric based MTT assay; format: functional, organism-based; details: Human immunodeficiency virus 1, RES056, MT4, 120 h
MT4 = assay: Cytotoxicity against human MT4 cells assessed as reduction in cell viability incubated for 5 days by Spectrophotometric based MTT assay; format: functional; details: MT4, 120 h, time 5 day
[2] = Selectivity index, ratio of CC50 for cytotoxicity against human MT4 cells to EC50 for antiviral activity against wild type HIV1 IIIB infected in human MT4 cells
[3] = test system: Human immunodeficiency virus 1; assay: Antiviral activity against wild type HIV1 IIIB infected in human MT4 cells assessed as reduction in virus induced cytopathic effect incubated for 5 days by Spectrophotometric based MTT assay; format: functional, organism-based; details: Human immunodeficiency virus 1, IIIB, MT4, 120 h
[4] = test system: Human immunodeficiency virus 1; assay: Antiviral activity against HIV1 harboring L100I mutant infected in human MT4 cells assessed as reduction in virus induced cytopathic effect incubated for 5 days by Spectrophotometric based MTT assay; format: functional, organism-based; details: Human immunodeficiency virus 1, MT4, 120 h
[5] = test system: Human immunodeficiency virus 1; assay: Antiviral activity against HIV1 harboring Y188L mutant infected in human MT4 cells assessed as reduction in virus induced cytopathic effect incubated for 5 days by Spectrophotometric based MTT assay; format: functional, organism-based; details: Human immunodeficiency virus 1, MT4, 120 h
[6] = test system: Human immunodeficiency virus 1; assay: Antiviral activity against HIV1 harboring Y181C mutant infected in human MT4 cells assessed as reduction in virus induced cytopathic effect incubated for 5 days by Spectrophotometric based MTT assay; format: functional, organism-based; details: Human immunodeficiency virus 1, MT4, 120 h
[7] = test system: Human immunodeficiency virus 1; assay: Antiviral activity against HIV1 harboring E138K mutant infected in human MT4 cells assessed as reduction in virus induced cytopathic effect incubated for 5 days by Spectrophotometric based MTT assay; format: functional, organism-based; details: Human immunodeficiency virus 1, MT4, 120 h
[8] = test system: Human immunodeficiency virus 1; assay: Antiviral activity against HIV1 harboring K103 N mutant infected in human MT4 cells assessed as reduction in virus induced cytopathic effect incubated for 5 days by Spectrophotometric based MTT assay; format: functional, organism-based; details: Human immunodeficiency virus 1, MT4, 120 h
[9] = test system: Human immunodeficiency virus 1; assay: Antiviral activity against HIV1 harboring F227L/V106A mutant infected in human MT4 cells assessed as reduction in virus induced cytopathic effect incubated for 5 days by Spectrophotometric based MTT assay; format: functional, organism-based; details: Human immunodeficiency virus 1, MT4, 120 h
[10] = Selectivity index, ratio of CC50 for cytotoxicity against human MT4 cells to EC50 for antiviral activity against HIV1 RES056 mutant infected in human MT4 cells
[11] = biological target: Human immunodeficiency virus type 1 reverse transcriptase (Human immunodeficiency virus 1, UniProt Q72547); assay: Inhibition of wild type HIV1 reverse transcriptase assessed as inhibition of biotin deoxyuridine triphosphate incorporation into cDNA using DIG-labelled dNTP preincubated with compound for 1 hr followed by substrate addition in presence of biotin-labeled dNTPs by ELISA analysis

Row | Compound | EC50 [1] | CC50 (MT4) | selectivity ratio ([2]; MT4 cells) | EC50 [3] | EC50 [4] | EC50 [5] | EC50 [6] | EC50 [7] | EC50 [8] | EC50 [9] | selectivity ratio ([10]; MT4 cells) | IC50 [11] | selectivity ratio ([2]; mt4) | selectivity ratio ([10]; mt4)
1 | COP(=O)(OC)N1CCN(c2ccc(Nc3nccc(Oc4c(C)cc(/C=C/C#N)cc4C)n3)cc2C#N)C(=O)C1 | > 23200 nM | 23200 nM | 94 | 250 nM | – | – | – | – | – | – | – | – | – | –
2 | Cc1cc(/C=C/C#N)cc(C)c1Oc1ccnc(Nc2ccc(N3CCSCC3)c(C#N)c2)n1 | 450 nM | > 267000 nM | > 30300 | 9 nM | 21 nM | 3000 nM | 40 nM | 49 nM | 6 nM | 66 nM | > 596 | – | – | –
3 | CC(=O)N1CCN(c2ccc(Nc3nccc(Oc4c(C)cc(/C=C/C#N)cc4C)n3)cc2C#N)CC1 | 550 nM | 6640 nM | 1280 | 5 nM | 62 nM | > 6640 nM | 65 nM | 30 nM | 3 nM | 44 nM | 12 | – | – | –
4 | Cc1cc(/C=C/C#N)cc(C)c1Oc1ccnc(Nc2ccc(N3CC[S+]([O-])CC3)c(C#N)c2)n1 | 2190 nM | 97800 nM | 19300 | 5 nM | 22 nM | > 97800 nM | 46 nM | 26 nM | 4 nM | 190 nM | 45 | – | – | –
5 | Cc1cc(/C=C/C#N)cc(C)c1Oc1ccnc(Nc2ccc(N3CCN(C)CC3)c(C#N)c2)n1 | > 3940 nM | 3940 nM | 195 | 20 nM | – | – | – | – | – | – | – | – | – | –
6 | Cc1cc(/C=C/C#N)cc(C)c1Oc1ccnc(Nc2ccc(N3CCCC3)c(C#N)c2)n1 | 5320 nM | 270000 nM | 5010 | 54 nM | – | – | – | – | – | – | 51 | – | – | –
7 | CSC1CN(c2ccc(Nc3nccc(Oc4c(C)cc(/C=C/C#N)cc4C)n3)cc2C#N)C1 | 2710 nM | > 267000 nM | > 45200 | 6 nM | 18 nM | > 267000 nM | 53 nM | 39 nM | 6 nM | 150 nM | > 99 | – | – | –
8 | Cc1cc(/C=C/C#N)cc(C)c1Oc1ccnc(Nc2ccc(N3CCS(=O)(=O)CC3)c(C#N)c2)n1 | 260 nM | 58200 nM | – | 2 nM | 4 nM | > 58300 nM | 12 nM | 9 nM | 2 nM | 58 nM | – | 160 nM | – | –
9 | Cc1cc(/C=C/C#N)cc(C)c1Oc1ccnc(Nc2ccc(N3CCC(F)(F)CC3)c(C#N)c2)n1 | 1270 nM | > 257000 nM | > 8290 | 31 nM | – | – | – | – | – | – | – | – | – | –
10 | CC(=O)C1CCN(c2ccc(Nc3nccc(Oc4c(C)cc(/C=C/C#N)cc4C)n3)cc2C#N)CC1 | 1490 nM | 5120 nM | 1070 | 5 nM | 65 nM | > 5120 nM | 150 nM | 110 nM | 12 nM | 75 nM | 3 | – | – | –
11 | Cc1cc(/C=C/C#N)cc(C)c1Oc1ccnc(Nc2ccc(N3CC(F)C3)c(C#N)c2)n1 | 520 nM | 170000 nM | 20000 | 9 nM | 48 nM | > 170000 nM | 49 nM | 63 nM | 10 nM | 330 nM | 328 | – | – | –
12 | COC1CN(c2ccc(Nc3nccc(Oc4c(C)cc(/C=C/C#N)cc4C)n3)cc2C#N)C1 | > 44200 nM | > 44200 nM | > 2050 | 22 nM | – | – | – | – | – | – | – | – | – | –
13 | Cc1cc(/C=C/C#N)cc(C)c1Oc1ccnc(Nc2ccc(N3CCSCC3=O)c(C#N)c2)n1 | 920 nM | 45300 nM | 3410 | 13 nM | – | – | – | – | – | – | 49 | – | – | –
14 | Cc1cc(/C=C/C#N)cc(C)c1Oc1ccnc(Nc2ccc(N3CC(C#N)C3)c(C#N)c2)n1 | > 44700 nM | > 44700 nM | > 3480 | 13 nM | – | – | – | – | – | – | – | – | – | –
15 | Cc1cc(/C=C/C#N)cc(C)c1Oc1ccnc(Nc2ccc(N3CCCCC3)c(C#N)c2)n1 | 4480 nM | > 277000 nM | > 6380 | 43 nM | – | – | – | – | – | – | > 62 | – | – | –
16 | Cc1cc(/C=C/C#N)cc(C)c1Oc1ccnc(Nc2ccc(N3CCC(C(F)(F)F)CC3)c(C#N)c2)n1 | 17600 nM | > 241000 nM | > 6100 | 40 nM | – | – | – | – | – | – | > 14 | – | – | –
17 | Cc1cc(/C=C/C#N)cc(C)c1Oc1ccnc(Nc2ccc(N3CCC(S(C)(=O)=O)CC3)c(C#N)c2)n1 | 820 nM | 6440 nM | 725 | 9 nM | 35 nM | 2830 nM | 40 nM | 42 nM | 18 nM | 65 nM | 8 | – | – | –
18 | Cc1cc(/C=C/C#N)cc(C)c1Oc1ccnc(Nc2ccc(N3CCC(C#N)CC3)c(C#N)c2)n1 | 1390 nM | > 42100 nM | > 4560 | 9 nM | 230 nM | > 42100 nM | 130 nM | 110 nM | 13 nM | 290 nM | > 30 | – | – | –
19 | Cc1cc(/C=C/C#N)cc(C)c1Oc1ccnc(Nc2ccc(N3CCOCC3=O)c(C#N)c2)n1 | 140 nM | 26600 nM | 9540 | 3 nM | 13 nM | 2600 nM | 23 nM | 15 nM | 4 nM | 330 nM | 191 | – | – | –
20 | Cc1cc(/C=C/C#N)cc(C)c1Oc1ccnc(Nc2ccc(N3CCS(=O)(=O)CC3=O)c(C#N)c2)n1 | 910 nM | 34000 nM | 8130 | 4 nM | 83 nM | 18400 nM | 140 nM | 130 nM | 3 nM | 250 nM | 37 | – | – | –
21 | Cc1cc(/C=C/C#N)cc(C)c1Oc1ccnc(Nc2ccc(N3CCC(F)CC3)c(C#N)c2)n1 | 1480 nM | > 267000 nM | > 18800 | 14 nM | – | – | – | – | – | – | > 181 | – | – | –
22 | Cc1cc(/C=C/C#N)cc(C)c1Oc1ccnc(Nc2ccc(N3CC[S+]([O-])CC3=O)c(C#N)c2)n1 (stereo unspecified) | 2810 nM | 26400 nM | 1780 | 15 nM | – | – | – | – | – | – | 9 | – | – | –
23 | COC1CCN(c2ccc(Nc3nccc(Oc4c(C)cc(/C=C/C#N)cc4C)n3)cc2C#N)CC1 | > 6890 nM | 6890 nM | 1080 | 6 nM | 130 nM | 4860 nM | 160 nM | 190 nM | 13 nM | 150 nM | – | – | – | –
24 | Cc1cc(/C=C/C#N)cc(C)c1Oc1ccnc(Nc2ccc(N3CCN(C=O)CC3)c(C#N)c2)n1 | 930 nM | 15900 nM | 4350 | 4 nM | 16 nM | 2980 nM | 53 nM | 48 nM | 20 nM | 98 nM | 17 | – | – | –
25 | Cc1cc(/C=C/C#N)cc(C)c1Oc1ccnc(Nc2ccc(N3CCN(S(C)(=O)=O)CC3=O)c(C#N)c2)n1 | 1520 nM | 25600 nM | 5910 | 4 nM | 100 nM | > 25600 nM | 310 nM | 94 nM | 5 nM | 280 nM | 17 | – | – | –
26 | O=C1Nc2ccc(Cl)cc2[C@@](C#CC2CC2)(C(F)(F)F)O1 [EFAVIRENZ] | 450 nM | > 6340 nM | – | – | 35 nM | – | 6 nM | – | 100 nM | 290 nM | – | – | – | –
27 | Cc1cc(C#N)cc(C)c1Oc1nc(Nc2ccc(C#N)cc2)nc(N)c1Br [ETRAVIRINE] | 81 nM | > 4590 nM | – | – | – | 35 nM | – | 25 nM | 5 nM | 28 nM | – | – | – | –
28 | Cc1ccnc2c1NC(=O)c1cccnc1N2C1CC1 [NEVIRAPINE] | > 15000 nM | > 15000 nM | – | – | 3450 nM | > 15000 nM | 4880 nM | – | 9010 nM | > 15000 nM | – | – | – | –
29 | Cc1cn([C@H]2C[C@H](N=[N+]=[N-])[C@@H](CO)O2)c(=O)[nH]c1=O [ZIDOVUDINE] | 35 nM | > 7480 nM | – | 35 nM | – | – | – | – | – | – | – | – | > 212 | > 214
